# Measured values published in ChEMBL document CHEMBL3045367, “Preparation and testing of homocubyl amines as therapeutic NMDA receptor antagonists” (Med Chem Res, 2013).
# Test: Displacement of [3H](+)-MK-801 from N-methyl D-aspartate receptor in Rattus norvegicus (rat) forebrain membranes after 90 min
# Set-up: species or system Membrane
SMILES,IC50 [µM],Ki [µM]
NC12C3C4C5C3C1C5C42 (stereo not given) [Cubylamine],259,189
NC1C2C3C4C1C1C2C3C41 (stereo not given) [Homocubyl-9-amine],843,615
CC12CC3CC(C)(C1)CC(N)(C3)C2 [MEMANTINE],1.56,1.14
NC1C2C3CC4C5CC(C1C53)C42 (stereo not given) [Trishomocubyl-4-amine],89,65
NC1C2C3CC4C2C2C1C3C42 (stereo not given) [bishomocubyl-10-amine],152,111
